Results published in ChEMBL document CHEMBL1149186, “Triacylglycerols based on 2-(N-tert-butoxycarbonylamino)oleic acid are potent inhibitors of pancreatic lipase” (J Med Chem, 2004).

Experiments:
[1] = target: T1, Gastric triacylglycerol lipase (Homo sapiens) (UniProt P07098); assay: Inhibition constant (molar fraction of compound) on human gastric lipase (HGL) at a constant surface pressure of 27 […]; conditions: Stomach
T1 sequence (whole entry): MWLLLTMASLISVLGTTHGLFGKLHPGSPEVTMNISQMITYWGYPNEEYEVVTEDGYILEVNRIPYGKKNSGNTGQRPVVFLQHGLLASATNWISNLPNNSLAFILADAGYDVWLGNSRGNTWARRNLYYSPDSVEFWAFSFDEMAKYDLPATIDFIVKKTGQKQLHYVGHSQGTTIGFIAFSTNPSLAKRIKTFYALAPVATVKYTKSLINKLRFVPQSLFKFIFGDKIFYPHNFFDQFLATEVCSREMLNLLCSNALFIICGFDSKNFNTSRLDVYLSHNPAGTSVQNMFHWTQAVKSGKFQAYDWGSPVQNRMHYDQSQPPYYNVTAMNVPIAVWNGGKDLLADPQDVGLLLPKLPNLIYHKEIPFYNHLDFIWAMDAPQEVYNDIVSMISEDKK

[2] = target: T2, Pancreatic triacylglycerol lipase (Homo sapiens) (UniProt P16233); assay: Inhibition constant (molar fraction of compound) on human pancreatic lipase (HPL) at a constant surface pressure of 25 […]
T2 sequence (whole entry): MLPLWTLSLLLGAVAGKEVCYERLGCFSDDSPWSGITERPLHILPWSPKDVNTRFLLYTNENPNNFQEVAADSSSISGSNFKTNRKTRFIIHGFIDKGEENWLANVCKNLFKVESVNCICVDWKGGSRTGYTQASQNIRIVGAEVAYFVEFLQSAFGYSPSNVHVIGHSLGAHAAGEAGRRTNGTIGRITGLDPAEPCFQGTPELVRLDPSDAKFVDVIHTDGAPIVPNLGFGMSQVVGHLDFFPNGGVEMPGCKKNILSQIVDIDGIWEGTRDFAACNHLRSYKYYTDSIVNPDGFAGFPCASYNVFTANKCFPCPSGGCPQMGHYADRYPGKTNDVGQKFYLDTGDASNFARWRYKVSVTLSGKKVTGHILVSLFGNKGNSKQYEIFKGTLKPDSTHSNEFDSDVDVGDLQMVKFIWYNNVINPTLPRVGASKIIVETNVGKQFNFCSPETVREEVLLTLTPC

[3] = target: T1, Gastric triacylglycerol lipase (Homo sapiens); assay: Inhibition constant (molar fraction of compound) on human gastric lipase (HGL) at a constant surface pressure of 17 […]; conditions: Stomach
[4] = target: T2, Pancreatic triacylglycerol lipase (Homo sapiens); assay: Inhibition constant (molar fraction of compound) on human pancreatic lipase (HPL) at a constant surface pressure of 14 […]

Alpha 50 (molar fraction) [1]	Alpha 50 (molar fraction) [2]	Alpha 50 (molar fraction) [3]	Alpha 50 (molar fraction) [4]	Compound
0.104	0.002	–	–	CCCCCCCC/C=C\CCCCCC[C@H](NC(=O)OC(C)(C)C)C(=O)OCC(C)(COC(=O)[C@H](CCCCCC/C=C\CCCCCCCC)NC(=O)OC(C)(C)C)OC(=O)[C@H](CCCCCC/C=C\CCCCCCCC)NC(=O)OC(C)(C)C
0.057	0.003	0.15	0.009	CCCCCCCC/C=C\CCCCCC[C@H](NC(=O)OC(C)(C)C)C(=O)OCC(COC(=O)[C@H](CCCCCC/C=C\CCCCCCCC)NC(=O)OC(C)(C)C)OC(=O)[C@H](CCCCCC/C=C\CCCCCCCC)NC(=O)OC(C)(C)C
